Measured values: publication PMC9203742 (Nature Communications, 2022)
Several values for one entry are separate records, joined by “and”; a condition that tells them apart may be missing. Equal values may be shown once.

Key:
mGlu1(N264H) mutant = molecular target: T1, mGlu1(N264H) mutant (Rattus norvegicus, UniProt P23385, N264H); assay: Fura-2 Ca2+ imaging in HEK293 cells expressing mGlu1(N264H); assay type: cell-based
T1 construct: expressed in transfected cells; host or cells: HEK293

[1] = test system: Purkinje cells in cerebellar slices from mGlu1^+/+ mice; assay: chemLTD recording (PF-EPSC) in Purkinje cells of acute cerebellar slices, mGlu1^+/+ mice; assay type: cell-based, mouse; details: for PF-EPSC amplitude relative to time 0: mGlu1+/+, individual cells
Method: Sagittal cerebellar slices were cut with a microslicer (Linear slicer Pro7; DOSAKA EM) in cutting solution buffer and then incubated in ACSF gassed with 5% CO2 and 95% O2 at room temperature.
Whole-cell patch-clamp recordings were made from visually identified Purkinje cells using a 60× water-immersion objective attached to an upright microscope (BX51WI, Olympus) at room temperature, as described previously. […] Picrotoxin (100 µM; Sigma) was always added to the saline to block inhibitory synaptic transmission.
To evoke EPSCs derived from CF (CF-EPSCs) and PF (PF-EPSCs) inputs onto Purkinje cells, square pulses were applied through a stimulating electrode placed on the granular layer and the molecular layer (50 µm away from the pial surface), respectively. The selective stimulation of CFs and PFs was confirmed by the paired-pulse depression (PPD) and paired-pulse facilitation (PPF) of EPSC amplitudes at a 50-ms interstimulus interval (ISI), respectively.
For the LTD sessions, PF-EPSCs were recorded successively at a frequency of 0.1 Hz from Purkinje cells clamped at –80 mV. After a stable PF-EPSC amplitude had been observed for at least 5 min, a conjunctive stimulation that consisted of 30 single PF stimuli together with a 200 ms depolarizing pulse from a holding potential of –60 to +20 mV was applied for LTD induction.
To chemically induce LTD (chemLTD), 50 µM (S)-3,5-dihydroxyphenylglycine (DHPG) or 1 µM Pd(sulfo-bpy) was applied for 10 min in a current-clamp mode. We often observed a transient decrease in PF-EPSC amplitude after the application of each drug probably because Purkinje cells under current-clamp conditions excite spontaneously to suppress presynaptic function through the retrograde signaling. Access resistances were monitored every 10 s by measuring the peak currents in response to 2 mV, 50-ms hyperpolarizing steps throughout the experiments; the measurements were discarded if the resistance changed by >20% of its original value. The normalized EPSC amplitude on the ordinate represents the EPSC amplitude for the average of six traces for 1 min divided by that of the average of six traces for 1 min immediately before the conjunctive stimulation or the drug application.

[2] = test system: GFP-positive Purkinje cells infected with AAV-L7-mGlu1^WT; assay: chemLTD recording in GFP-positive Purkinje cells, slices infected with AAV-L7-mGlu1^WT; assay type: cell-based, mouse; details: for PF-EPSC amplitude normalized to time 0, individual Purkinje cells / PF-EPSC amplitude normalized to time 0, mean of cells: AAV-L7-mGlu1WT

T1 sequence (P23385 19-1199 N264H): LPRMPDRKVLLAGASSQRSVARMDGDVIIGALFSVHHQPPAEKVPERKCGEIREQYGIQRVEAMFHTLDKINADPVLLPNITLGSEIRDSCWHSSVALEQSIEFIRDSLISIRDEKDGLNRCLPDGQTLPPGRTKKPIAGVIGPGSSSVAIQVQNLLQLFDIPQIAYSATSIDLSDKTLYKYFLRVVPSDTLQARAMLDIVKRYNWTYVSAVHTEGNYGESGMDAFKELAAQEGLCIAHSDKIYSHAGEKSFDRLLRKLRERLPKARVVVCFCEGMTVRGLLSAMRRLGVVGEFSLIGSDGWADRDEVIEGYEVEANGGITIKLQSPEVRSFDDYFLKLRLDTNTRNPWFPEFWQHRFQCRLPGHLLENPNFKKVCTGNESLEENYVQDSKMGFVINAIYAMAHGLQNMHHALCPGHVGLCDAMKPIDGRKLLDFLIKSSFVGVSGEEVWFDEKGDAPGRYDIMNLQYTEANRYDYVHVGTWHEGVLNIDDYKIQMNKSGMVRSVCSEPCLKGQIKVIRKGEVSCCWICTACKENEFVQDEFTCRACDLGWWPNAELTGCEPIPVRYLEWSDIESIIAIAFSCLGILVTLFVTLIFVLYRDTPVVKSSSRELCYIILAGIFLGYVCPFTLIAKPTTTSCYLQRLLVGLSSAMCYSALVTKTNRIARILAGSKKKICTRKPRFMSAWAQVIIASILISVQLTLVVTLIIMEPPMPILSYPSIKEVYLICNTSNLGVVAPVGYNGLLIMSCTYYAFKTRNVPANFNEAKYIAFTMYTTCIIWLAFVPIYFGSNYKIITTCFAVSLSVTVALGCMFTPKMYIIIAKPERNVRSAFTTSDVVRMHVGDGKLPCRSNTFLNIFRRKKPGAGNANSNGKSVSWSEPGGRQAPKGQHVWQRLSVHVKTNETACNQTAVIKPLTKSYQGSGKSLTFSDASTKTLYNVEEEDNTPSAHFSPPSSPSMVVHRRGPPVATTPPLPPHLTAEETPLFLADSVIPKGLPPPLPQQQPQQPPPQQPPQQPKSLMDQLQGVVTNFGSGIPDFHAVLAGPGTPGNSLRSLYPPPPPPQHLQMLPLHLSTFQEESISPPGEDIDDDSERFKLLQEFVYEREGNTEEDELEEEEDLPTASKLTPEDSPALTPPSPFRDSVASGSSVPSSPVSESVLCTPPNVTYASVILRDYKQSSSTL

Structure (SMILES): Cc1ccnc(-c2cc(COCCCS(=O)(=O)[O-])ccn2)c1.[Cl][Pd][Cl].[Na+] [Pd(sulfo-bpy)]
- Ca2+ response, concentration dependence (Fig.4f) (mGlu1(N264H) mutant; 0.01 µM Pd complex): 0.001442
- Ca2+ response, concentration dependence (Fig.4f) (mGlu1(N264H) mutant; 0.03 µM Pd complex): -0.01191
- Ca2+ response, concentration dependence (Fig.4f) (mGlu1(N264H) mutant; 0.1 µM Pd complex): -0.00118
- Ca2+ response, concentration dependence (Fig.4f) (mGlu1(N264H) mutant; 0.3 µM Pd complex): 0.1279
- Ca2+ response, concentration dependence (Fig.4f) (mGlu1(N264H) mutant; 1 µM Pd complex): 0.241
- Ca2+ response, concentration dependence (Fig.4f) (mGlu1(N264H) mutant; 3 µM Pd complex): 0.3078
- Receptor activation (Ca2+ response, Δratio) (mGlu1(N264H) mutant; 3 μM Pd(bpy) derivative): successfully activated
- Ca2+ response, concentration dependence (Fig.4f) (mGlu1(N264H) mutant; 10 µM Pd complex): 0.4466
- Ca2+ response, concentration dependence (Fig.4f) (mGlu1(N264H) mutant; 30 µM Pd complex): 0.3481
- EC50 (mGlu1(N264H) mutant; HEK293 cells, Fura-2, read-out: EC50, Ca2+ response (Δratio)): 0.62 µM
- Ca2+ response to Pd complex, individual cells #1-#20 (Fig.4e) (mGlu1(N264H) mutant; single-cell values): 0.8899 and 0.2578 and 0.9132 and -0.001662 and 0.6326 and 0.4158 and 0.6574 and 1.139 and -0.004669 and -0.01576 and 0.5967 and 0.1275 and -0.001162 and 0.09754 and -0.01851 and 1.312 and 1.093 and 0.7225 and 0.4683 and -0.003462
- chemLTD: normalized PF-EPSC amplitude ([1]; 1 μM Pd(sulfo-bpy) for 10 min, t = 31−35 min): 99 ± 4%
- PF-EPSC amplitude relative to time 0 ([1]; time 11 min): 1.305 and 0.7371 and 0.3878 and 0.9487 and 0.6362 and 1.191 and 0.6572 and 0.79
- PF-EPSC amplitude relative to time 0 ([1]; time 12 min): 1.203 and 0.9018 and 0.4484 and 1.074 and 0.6455 and 1.19 and 0.9598 and 0.8251
- PF-EPSC amplitude relative to time 0 ([1]; time 13 min): 1.075 and 1.089 and 0.5282 and 1.162 and 0.6836 and 1.016 and 0.9614 and 0.7972
- PF-EPSC amplitude relative to time 0 ([1]; time 14 min): 1.127 and 1.131 and 0.639 and 1.08 and 0.8118 and 0.8848 and 0.8669 and 0.886
- PF-EPSC amplitude relative to time 0 ([1]; time 15 min): 0.8966 and 0.8928 and 0.5282 and 1.038 and 0.8059 and 0.9429 and 0.8907 and 0.8537
- PF-EPSC amplitude relative to time 0 ([1]; time 16 min): 1.016 and 0.9829 and 0.5855 and 1.115 and 0.7312 and 0.9396 and 0.9005 and 0.8573
- PF-EPSC amplitude relative to time 0 ([1]; time 17 min): 1.118 and 0.828 and 0.627 and 1.083 and 0.6712 and 0.9977 and 1.081 and 0.8535
- PF-EPSC amplitude relative to time 0 ([1]; time 18 min): 1.106 and 0.9208 and 0.5918 and 1.166 and 0.7081 and 1.026 and 1.038 and 0.9503
- PF-EPSC amplitude relative to time 0 ([1]; time 19 min): 1.038 and 0.7989 and 0.7251 and 1.08 and 0.721 and 0.8774 and 0.9331 and 0.9414
- PF-EPSC amplitude relative to time 0 ([1]; time 20 min): 1.053 and 0.8133 and 0.2871 and 1.2251 and 0.7983 and 1.16 and 1.101 and 0.9444
- PF-EPSC amplitude relative to time 0 ([1]; time 21 min): 1.169 and 0.7496 and 1.002 and 1.096 and 0.7681 and 0.9902 and 1.174 and 0.9728
- PF-EPSC amplitude relative to time 0 ([1]; time 22 min): 1.26 and 0.9695 and 1.072 and 1.131 and 0.7557 and 1.075 and 1.029 and 0.936
- PF-EPSC amplitude relative to time 0 ([1]; time 23 min): 1.263 and 0.7868 and 0.9511 and 1.11
- chemLTD: normalized PF-EPSC amplitude ([2]; 1 μM Pd(sulfo-bpy), t = 31−35 min): 88 ± 7%
- PF-EPSC amplitude normalized to time 0, individual Purkinje cells ([2]; Time 11 min): 0.5479 and 0.8947 and 0.9287 and 0.866 and 0.7568 and 0.3484 and 0.5317
- PF-EPSC amplitude normalized to time 0, mean of cells ([2]; Time 11 min): 0.6963
- PF-EPSC amplitude normalized to time 0, individual Purkinje cells ([2]; Time 12 min): 0.6486 and 0.7811 and 0.7919 and 0.9348 and 0.7682 and 0.482 and 0.6188
- PF-EPSC amplitude normalized to time 0, mean of cells ([2]; Time 12 min): 0.7179
- PF-EPSC amplitude normalized to time 0, individual Purkinje cells ([2]; Time 13 min): 0.8009 and 0.7991 and 0.7966 and 0.9028 and 0.809 and 0.4767 and 0.682
- PF-EPSC amplitude normalized to time 0, mean of cells ([2]; Time 13 min): 0.7525
- PF-EPSC amplitude normalized to time 0, individual Purkinje cells ([2]; Time 14 min): 0.8571 and 0.8119 and 0.8301 and 0.9359 and 0.8385 and 0.4849 and 0.6984
- PF-EPSC amplitude normalized to time 0, mean of cells ([2]; Time 14 min): 0.7795
- PF-EPSC amplitude normalized to time 0, individual Purkinje cells ([2]; Time 15 min): 0.8756 and 0.8988 and 0.8051 and 0.8932 and 0.8452 and 0.5102 and 0.7309
- PF-EPSC amplitude normalized to time 0, mean of cells ([2]; Time 15 min): 0.7942
- PF-EPSC amplitude normalized to time 0, individual Purkinje cells ([2]; Time 16 min): 0.9159 and 0.9928 and 0.8396 and 0.8655 and 0.841 and 0.5112 and 0.7755
- PF-EPSC amplitude normalized to time 0, mean of cells ([2]; Time 16 min): 0.8202
- PF-EPSC amplitude normalized to time 0, individual Purkinje cells ([2]; Time 17 min): 0.9971 and 1.069 and 0.8238 and 0.8887 and 0.8439 and 0.5087 and 0.7457
- PF-EPSC amplitude normalized to time 0, mean of cells ([2]; Time 17 min): 0.8396
- PF-EPSC amplitude normalized to time 0, individual Purkinje cells ([2]; Time 18 min): 1.0288 and 1.119 and 0.837 and 0.8899 and 0.9043 and 0.5561 and 0.7949
- PF-EPSC amplitude normalized to time 0, mean of cells ([2]; Time 18 min): 0.8757
- PF-EPSC amplitude normalized to time 0, individual Purkinje cells ([2]; Time 19 min): 0.8877 and 1.0703 and 0.9503 and 0.893 and 0.9667 and 0.5652 and 0.7658
- PF-EPSC amplitude normalized to time 0, mean of cells ([2]; Time 19 min): 0.8713
- PF-EPSC amplitude normalized to time 0, individual Purkinje cells ([2]; Time 20 min): 1.078 and 1.198 and 0.844 and 0.865 and 1.008 and 0.5754 and 0.7572
- PF-EPSC amplitude normalized to time 0, mean of cells ([2]; Time 20 min): 0.9036
- PF-EPSC amplitude normalized to time 0, individual Purkinje cells ([2]; Time 21 min): 0.9655 and 1.126 and 0.8812 and 0.8773 and 1.052 and 0.5885 and 0.7582
- PF-EPSC amplitude normalized to time 0, mean of cells ([2]; Time 21 min): 0.8926
- PF-EPSC amplitude normalized to time 0, individual Purkinje cells ([2]; Time 22 min): 1.0065 and 1.121 and 0.9135 and 0.8951 and 1.02 and 0.5416 and 0.8122
- PF-EPSC amplitude normalized to time 0, mean of cells ([2]; Time 22 min): 0.9014
- PF-EPSC amplitude normalized to time 0, individual Purkinje cells ([2]; Time 23 min): 1.013 and 1.096 and 0.8837 and 0.8809 and 1.04 and 0.5776 and 0.8487
- PF-EPSC amplitude normalized to time 0, mean of cells ([2]; Time 23 min): 0.9057
- PF-EPSC amplitude normalized to time 0, individual Purkinje cells ([2]; Time 24 min): 1.0609 and 0.96 and 0.924 and 0.9136 and 1.045 and 0.5613 and 0.9388
- PF-EPSC amplitude normalized to time 0, mean of cells ([2]; Time 24 min): 0.9148
- PF-EPSC amplitude normalized to time 0, individual Purkinje cells ([2]; Time 25 min): 1.0868 and 0.9289
- PF-EPSC amplitude normalized to time 0, mean of cells ([2]; Time 25 min): 0.9269
- PF-EPSC amplitude normalized to time 0, mean of cells ([2]; Time 26 min): 0.8953
- PF-EPSC amplitude normalized to time 0, mean of cells ([2]; Time 27 min): 0.9119
- PF-EPSC amplitude normalized to time 0, mean of cells ([2]; Time 28 min): 0.9459
- PF-EPSC amplitude normalized to time 0, mean of cells ([2]; Time 29 min): 0.9165
- PF-EPSC amplitude normalized to time 0, mean of cells ([2]; Time 30 min): 0.8807
- PF-EPSC amplitude normalized to time 0, mean of cells ([2]; Time 31 min): 0.8545
- PF-EPSC amplitude normalized to time 0, mean of cells ([2]; Time 32 min): 0.8798
- PF-EPSC amplitude normalized to time 0, mean of cells ([2]; Time 33 min): 0.8652
- PF-EPSC amplitude normalized to time 0, mean of cells ([2]; Time 34 min): 0.8955
- PF-EPSC amplitude normalized to time 0, mean of cells ([2]; Time 35 min): 0.9028
- PF-EPSC amplitude normalized to time 0, mean of cells ([2]; Time 36 min): 0.8988
- PF-EPSC amplitude normalized to time 0, mean of cells ([2]; Time 37 min): 0.876
